Assay results as given in US11987608B2, “Composition for accelerating cell proliferation comprising erythropoietin-derived peptide” (SYLUS CO., LTD., priority 2018, dated 2024).
Where two headings read alike, the source gives them in different places. No end group written: not given here.

Key:
[1] = biological target: T1, Soluble mouse EPOR chimera proteins (Mus musculus, UniProt P14753); assay: SPR binding affinity of erythropoietin-derived peptides to erythropoietin receptor; conditions: for koff: read-out: Kd (dissociation rate); for kon: read-out: Ka (association rate)
T1 construct: Soluble mouse EPOR chimera proteins; purchased R&D Systems
T1 sequence (P14753 25-249 limits assumed): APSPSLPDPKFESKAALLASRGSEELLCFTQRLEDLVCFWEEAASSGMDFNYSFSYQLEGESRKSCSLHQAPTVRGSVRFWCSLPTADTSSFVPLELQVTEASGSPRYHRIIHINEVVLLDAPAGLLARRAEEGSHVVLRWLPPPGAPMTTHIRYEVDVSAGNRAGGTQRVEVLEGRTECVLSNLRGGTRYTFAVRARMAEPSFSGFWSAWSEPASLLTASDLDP
Procedure: The SPR technique is to measure interactions between biomolecules in real-time by using an optical principle without specific labeling, and is a system analyzing affinity between two molecules and kinetics, i.e., an association rate (Ka) and a dissociation rate (Kd).
In detail, real-time SPR analysis was performed using Reichert SPR Biosensor SR 7500C instrument (Reichert Inc., NY, USA). Soluble mouse EPOR chimera proteins (R&D Systems, Minneapolis, MN, USA) were covalently linked to a carboxymethylated dextran matrix-coated chip (BR-1005-39, Pharmacia Biosensor AB) by an amine coupling procedure using an amine coupling kit (BR-1000-50, GE Healthcare, USA) in accordance with manufacturer's instructions. Each 5 μM, 2.5 μM, and 1.25 μM of the peptide samples of the present disclosure and scrambled peptides were applied at a flow rate of 5 μl/minute, and the experiments were independently performed in duplicate. For signal normalization, DMSO was applied at a flow rate of 5 μl/minute, and after each binding cycle, the sensor chip was regenerated by injecting 25 mM acetic acid at a flow rate of 20 μl/minute.

PC12 cells [2] = assay: Comparison of cell protective and proliferative effects to EPO by K-means clustering; assay type: cell-based; conditions: FIG. 9
erythropoietin receptor = biological target: T2, erythropoietin receptor (Homo sapiens, UniProt P19235); assay: Erythropoietin receptor activation through ERK1/2 phosphorylation (western blot) in HEK 293 cells expressing EPOR-GFP; assay type: cell-based; conditions: FIG. 12; for character of erythropoietin receptor activation: ERK1/2 phosphorylation
T2 construct: expressed in transfected cells
T2 sequence (P19235 25-508): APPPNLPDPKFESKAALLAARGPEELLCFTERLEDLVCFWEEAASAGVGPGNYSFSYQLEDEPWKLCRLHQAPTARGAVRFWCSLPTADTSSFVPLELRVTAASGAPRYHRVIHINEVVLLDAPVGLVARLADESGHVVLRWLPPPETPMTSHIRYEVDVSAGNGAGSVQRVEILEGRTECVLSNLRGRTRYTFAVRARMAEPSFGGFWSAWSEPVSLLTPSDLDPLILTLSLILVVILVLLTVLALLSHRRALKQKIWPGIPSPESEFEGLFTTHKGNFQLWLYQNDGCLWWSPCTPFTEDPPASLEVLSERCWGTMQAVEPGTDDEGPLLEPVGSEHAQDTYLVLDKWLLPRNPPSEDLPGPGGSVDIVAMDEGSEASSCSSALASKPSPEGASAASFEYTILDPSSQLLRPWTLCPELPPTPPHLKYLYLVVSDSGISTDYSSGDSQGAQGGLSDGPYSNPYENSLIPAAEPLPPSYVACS

PC12 cells [3] = assay: Cell proliferation, MTT assay; assay type: cell-based; conditions: 10 ng/ml peptide, 24 hours, FIG. 7
Procedure: To determine the side effect, such as cell proliferation, of the peptides prepared in Examples 1 to 3, cell viability was evaluated by an MTT assay.
In detail, PC12 cells were cultured in a DMEM (Dulbecco's Modified Eagle's Medium) medium (Hyclone, USA) and an RPM11640 medium (Hyclone, UT, USA), each supplemented with 10% fetal bovine serum (FBS, Hyclone, Utah, USA), 100 unit/ml penicillin, and 100 μg/ml streptomycin (Hyclone, UT, USA) in an incubator supplied with 5% CO2 and under a condition of 37° C. PC12 cell lines were seeded in a 96-well plate at a density of 5×10^4 cells/ml, and cultured under conditions of 37° C. and 5% CO2 for 24 hours. Thereafter, the cells were treated with each of the peptides of Examples 1 to 3, which were prepared at a concentration of 10 ng/ml, followed by incubation for 24 hours. Thereafter, 20 μl of 5 mg/ml 3-[4,5-dimethyl-thiazol]-2,5-diphenyl-tetrazolium bromide (MTT) reagent was added thereto, and allowed to react for 2 hours. After reaction, 200 μl of dimethyl sulfoxide (DMSO, Duksan, Gyeonggi-do, Korea) was added thereto to completely dissolve formed formazan, and absorbance at 570 nm was measured using a microplate reader (Molecular Devices, CA, USA).

mice = assay: In vivo hematopoietic activity, blood test; set-up: species or system mouse
Procedure: In vivo hematopoietic activities in a mouse were measured for the peptides prepared in Example 5, MLP, MLP-C, and MLP-H.
In detail, the prepared peptide or scrambled (Scr) peptide as a negative control group was administered by intraperitoneal injection to mice at a dose of 0 μg/kg, 1 μg/kg, or 100 μg/kg repeatedly, everyday over 14 days. Thereafter, a body weight test and a blood test were performed.

[4] = sampling at 0, 30, 60, 90 minutes
[5] = 100 μg/kg intraperitoneal daily over 14 days

Compound: CC[C@H](C)[C@H](NC(=O)[C@H](C)NC(=O)[C@H](CCC(=O)O)NC(=O)[C@H](CCCCN)NC(=O)[C@H](CCC(N)=O)NC(=O)[C@H](C)NC(=O)CNC(=O)[C@H](CC(C)C)NC(=O)[C@H](C)NC(=O)[C@H](CCCNC(=N)N)NC(=O)[C@H](CC(C)C)NC(=O)[C@H](CC(C)C)NC(=O)[C@@H](NC(=O)[C@@H](NC(=O)[C@H](CC(C)C)NC(=O)[C@H](CO)NC(=O)[C@H](CCCNC(=N)N)NC(=O)[C@H](CC(C)C)NC(=O)CNC(=O)[C@@H](N)CO)[C@@H](C)O)[C@@H](C)O)C(=O)O [ML6]
- koff ([1]; SPR, Table 10): 0.045 s⁻¹

Compound: AGLRSRAHLRRALA [ML5-1]
- kon ([1]; SPR, Table 10): 442 M⁻¹ s⁻¹
- koff ([1]; SPR, Table 10): 0.0346 s⁻¹

Compound: DEALDLEVDKAATGLRTLTTLIRAL [ML7-1]
- kon ([1]; SPR, Table 10): 226 M⁻¹ s⁻¹
- koff ([1]; SPR, Table 10): 0.0144 s⁻¹

Compound: DKAVSGLRSLTTLLRAL [ML8]
- kon ([1]; SPR, Table 10): 180 M⁻¹ s⁻¹
- koff ([1]; SPR, Table 10): 0.08 s⁻¹

Compound: DKAVSGLRSLTTLLRALGAQKEAI [ML4]
- kon ([1]; SPR, Table 10): 220 M⁻¹ s⁻¹
- koff ([1]; SPR, Table 10): 0.0022 s⁻¹

Compound: KGLRSLISLLRALGAQKEAI [ML6-1]
- kon ([1]; SPR, Table 10): 190 M⁻¹ s⁻¹
- koff ([1]; SPR, Table 10): 0.03 s⁻¹

Compound: KKAVSGLKTLTHILRALGAQKEAI [ML4-1]
- kon ([1]; SPR, Table 10): 410 M⁻¹ s⁻¹

Compound: LDLEVDKAVSGLRSLTTLLRALG [ML1-C1]
- kon [1]: 1750 M⁻¹ s⁻¹
- koff [1]: 0.262 s⁻¹
- clustering of cell protective and proliferative effects relative to EPO (PC12 cells [2]): clustered as having similar effects as EPO

Compound: LHVDKAVSGLRSLTTLLRAL [ML2]
- koff ([1]; SPR, Table 10): 0.0044 s⁻¹

Compound: LHVLKAVSGLLTLTMIRRA (MLP-H) [ML1-H2 with two amino acids removed from both ends, for in vivo use]
- character of erythropoietin receptor activation (erythropoietin receptor): weak yet lasts for a prolonged period of time
- erythropoietin receptor activation after 30 minutes (erythropoietin receptor; [4]): maintains activation even after 30 minutes

Compound: LQLHVDKAVSGLRSLTTLLRALG [ML1]
- kon ([1]; SPR, Table 10): 1310 M⁻¹ s⁻¹
- koff ([1]; SPR, Table 10): 0.0085 s⁻¹
- kon ([1]; SPR, Table 11): 1310 M⁻¹ s⁻¹
- koff ([1]; SPR, Table 11): 0.00847 s⁻¹
- cell proliferative effects compared to EPO groups (PC12 cells [2]): a large difference
- cell protective effects compared to EPO groups (PC12 cells [2]): no large difference

Compound: LQLHVLKAVAGLRTLAMIRRALA [ML1-H3]
- kon ([1]; SPR, Table 11): 4160 M⁻¹ s⁻¹
- koff ([1]; SPR, Table 11): 0.00477 s⁻¹
- cell proliferative effects compared to EPO groups (PC12 cells [2]): a large difference
- cell protective effects compared to EPO groups (PC12 cells [2]): no large difference

Compound: LQLHVLKAVSGLLTHTTLLKALG [ML1-H1]
- kon ([1]; SPR, Table 11): 1010 M⁻¹ s⁻¹
- koff ([1]; SPR, Table 11): 0.00794 s⁻¹
- cell proliferative effects compared to EPO groups (PC12 cells [2]): a large difference
- cell protective effects compared to EPO groups (PC12 cells [2]): no large difference

Compound: LQLHVLKAVSGLLTLTMIRRALG [ML1-H2]
- kon ([1]; SPR, Table 11): 3430 M⁻¹ s⁻¹
- koff ([1]; SPR, Table 11): 0.00105 s⁻¹
- cell proliferative effects compared to EPO groups (PC12 cells [2]): a large difference
- cell protective effects compared to EPO groups (PC12 cells [2]): no large difference

Compound: LQLHVLKRVSGLLSHTMLLKALG [ML1-1]
- kon ([1]; SPR, Table 10): 5550 M⁻¹ s⁻¹
- koff ([1]; SPR, Table 10): 0.0059 s⁻¹

Compound: LQRHVDKRVSGLRSLTTLLRALG [ML1-C2]
- kon ([1]; SPR, Table 11): 1590 M⁻¹ s⁻¹
- koff ([1]; SPR, Table 11): 0.0188 s⁻¹
- cell proliferation rate (PC12 cells [3]): cell proliferative effects to a degree similar to that of the natural erythropoietin
- clustering of cell protective and proliferative effects relative to EPO (PC12 cells [2]): clustered as having similar effects as EPO

Compound: LQRHVKKRVKGLKSLTTLLRALG [ML1-C3]
- kon ([1]; SPR, Table 11): 1100 M⁻¹ s⁻¹
- koff ([1]; SPR, Table 11): 0.0109 s⁻¹
- cell proliferation rate (PC12 cells [3]): cell proliferative effects to a degree similar to that of the natural erythropoietin
- clustering of cell protective and proliferative effects relative to EPO (PC12 cells [2]): clustered as having similar effects as EPO

Compound: NKAVAGLRSLTVN [ML8-1]
- koff ([1]; SPR, Table 10): 0.15 s⁻¹

Compound: RHVKKRVKGLKSLTTLLRA (MLP-C) [ML1-C3 with two amino acids removed from both ends, for in vivo use]
- character of erythropoietin receptor activation (erythropoietin receptor): brief but potent activation
- erythropoietin receptor activation after 30 minutes (erythropoietin receptor; [4]): decline thereafter
- time of maximum erythropoietin receptor activity (ERK1/2 phosphorylation) (erythropoietin receptor; [4]): 30 min
- hemoglobin content (mice; [5]): significant increases
- mean corpuscular hemoglobin (mice; [5]): significant increases
- mean corpuscular hemoglobin concentration (mice; [5]): significant increases
- red blood cell count (mice; 100 μg/kg intraperitoneal daily over 14 days, FIG. 11B): significant increases
- platelet concentration (mice; intraperitoneal daily over 14 days, FIG. 11D): no large change
- hematocrit (mice; intraperitoneal, 1 or 100 μg/kg daily over 14 days, FIG. 11A): significantly increased according to an administration dose

Compound: RHVQKAESGLRSLTKLLREL [ML2-1]
- kon ([1]; SPR, Table 10): 310 M⁻¹ s⁻¹
- koff ([1]; SPR, Table 10): 0.0041 s⁻¹

Compound: SGLRSLTTLLRALG [ML5]
- kon ([1]; SPR, Table 10): 304 M⁻¹ s⁻¹
- koff ([1]; SPR, Table 10): 0.0001 s⁻¹

Compound: TKVNFYAWKR [ML3]
- kon ([1]; SPR, Table 10): 205 M⁻¹ s⁻¹
- koff ([1]; SPR, Table 10): 0.003 s⁻¹

Compound: TRVNYQAWKR [ML3-1]
- kon ([1]; SPR, Table 10): 3080 M⁻¹ s⁻¹
- koff ([1]; SPR, Table 10): 0.013 s⁻¹
